Reference: publication PMC4818757, “Small molecule inhibitors of the Dishevelled‐CXXC5 interaction are new drug candidates for bone anabolic osteoporosis therapy” (EMBO Molecular Medicine, 2016)

Columns and labels:
primary calvaria cells = experiment: MTT cell viability of primary calvaria cells; type: cell-based, mouse; conditions: 2 μM
Method: Appendix Figure S2. The effects of Dvl-CXXC5 binding small molecule inhibitors on primary calvaria cells.
A Primary calvaria cells were treated with 2 µ M of each compound for the indicated times. The cells were subjected to an MTT assay (OD590 reading) to measure cell viability. The data are the mean ± s.d. (error […]
B Primary calvaria cells were treated with 2 µ M of each compound for 4 days. ALP activity levels were visualized by ALP staining. [n =2]
(1 picture or pasted object on this page, not shown here)

MC3T3E1 cells = experiment: β-catenin and Runx2 immunoblot/immunofluorescence in MC3T3E1 cells; type: cell-based, murine; conditions: 2 days, dose‐dependent
Method: Figure 5 Effects of KY‐02327 on Wnt/β‐catenin pathway and osteoblast differentiation in osteoblasts • A MC3T3E1 cells were transfected with pTOPFLASH together with pCMV‐β‐gal. After 24 h, the cells were treated with indicated dose of KY‐02327 for 2 days. The luciferase activities of whole‐cell lysates were measured and normalized with β‐galactosidase activities. (n = 3) • B, C MC3T3E1 cells were treated with indicated concentrations of KY‐02327 for 2 days. β‐Catenin and α‐tubulin were detected by immunoblot (B) or immunofluorescence (C) analyses. Nuclei were counterstained with DAPI (C, blue). Scale bars, 100 μm. • D MC3T3E1 cells were treated with indicated concentrations of KY‐02327 for 14 days. The mRNA level of collagen 1a (Col1a) was measured by quantitative real‐time PCR (qRT–PCR). (n = 3) • E MC3T3E1 cells were treated with indicated concentrations of KY‐02327 for 21 days. The mRNA level of osteocalcin (OCN) was measured by qRT–PCR. (n = 3) Data Information: For A, D, and E, the data are the mean ± s.d. (error bars), and significance was assessed using unpaired Student's t‐test. […]

[1] = biological target: CYP C29 (so in the source); probably CYP2C9) (Homo sapiens, UniProt P11712); experiment: Cytochrome P450 inhibition assay, C29; conditions: probe fluorogenic P450 substrates
Sequence of CYP C29 (so in the source); probably CYP2C9) (P11712 whole entry): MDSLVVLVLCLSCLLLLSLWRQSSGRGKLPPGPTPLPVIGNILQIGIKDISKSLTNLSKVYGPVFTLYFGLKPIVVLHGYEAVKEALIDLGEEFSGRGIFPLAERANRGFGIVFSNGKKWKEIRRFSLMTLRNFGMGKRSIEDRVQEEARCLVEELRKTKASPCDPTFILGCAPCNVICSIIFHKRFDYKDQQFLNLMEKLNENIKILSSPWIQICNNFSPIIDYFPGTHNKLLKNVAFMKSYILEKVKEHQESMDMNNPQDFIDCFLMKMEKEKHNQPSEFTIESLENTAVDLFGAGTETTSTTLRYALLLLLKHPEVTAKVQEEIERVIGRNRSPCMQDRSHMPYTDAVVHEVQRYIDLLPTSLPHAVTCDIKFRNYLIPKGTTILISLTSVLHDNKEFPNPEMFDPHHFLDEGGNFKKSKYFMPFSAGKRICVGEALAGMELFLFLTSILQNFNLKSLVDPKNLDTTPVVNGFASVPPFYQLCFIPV
From the text: Appendix Table S4. Cytochrome P450 (CYP) inhibition assay with 10 µ M KY-

CYP3A4 = CYP3A4 (Homo sapiens, UniProt P08684); experiment: in vitro; conditions: probe fluorogenic P450 substrates
Sequence of CYP3A4 (P08684 whole entry): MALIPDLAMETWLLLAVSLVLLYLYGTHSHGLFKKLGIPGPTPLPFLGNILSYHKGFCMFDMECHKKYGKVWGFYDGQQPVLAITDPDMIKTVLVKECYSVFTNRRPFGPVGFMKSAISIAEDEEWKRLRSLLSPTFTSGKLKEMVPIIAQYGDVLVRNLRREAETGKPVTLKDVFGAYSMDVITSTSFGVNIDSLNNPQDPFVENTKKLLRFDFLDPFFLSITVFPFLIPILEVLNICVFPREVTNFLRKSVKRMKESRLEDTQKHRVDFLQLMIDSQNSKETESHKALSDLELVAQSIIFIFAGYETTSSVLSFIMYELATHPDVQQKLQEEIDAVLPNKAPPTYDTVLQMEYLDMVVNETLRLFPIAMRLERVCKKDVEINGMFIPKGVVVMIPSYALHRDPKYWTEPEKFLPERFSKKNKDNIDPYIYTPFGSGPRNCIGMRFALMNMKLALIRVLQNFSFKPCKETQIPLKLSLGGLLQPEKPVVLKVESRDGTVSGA

CYP1A2 = biological target: T1, CYP1A2 (Homo sapiens, UniProt P05177); experiment: in vitro; conditions: probe fluorogenic P450 substrates
T1 sequence (P05177 1-516): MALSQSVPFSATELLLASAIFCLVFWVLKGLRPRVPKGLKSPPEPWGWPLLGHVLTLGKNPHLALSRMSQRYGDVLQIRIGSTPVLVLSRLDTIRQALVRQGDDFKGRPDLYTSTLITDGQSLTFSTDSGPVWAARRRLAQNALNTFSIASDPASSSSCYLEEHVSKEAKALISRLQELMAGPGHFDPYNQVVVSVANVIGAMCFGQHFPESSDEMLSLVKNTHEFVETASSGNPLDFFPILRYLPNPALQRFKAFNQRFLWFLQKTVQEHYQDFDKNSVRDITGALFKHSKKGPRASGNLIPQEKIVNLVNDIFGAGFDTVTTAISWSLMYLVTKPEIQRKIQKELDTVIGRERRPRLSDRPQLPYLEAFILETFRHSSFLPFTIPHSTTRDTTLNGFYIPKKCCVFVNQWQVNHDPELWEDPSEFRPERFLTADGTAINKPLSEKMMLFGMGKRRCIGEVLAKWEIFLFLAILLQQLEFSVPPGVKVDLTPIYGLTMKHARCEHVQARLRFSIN

Dvl PDZ domain = biological target: T2, Dvl PDZ domain (Homo sapiens, UniProt O14640); experiment: Surface plasmon resonance; type: binding
T2 construct: plasmid DNA encoding Dvl-1247- 341 (the Dvl PDZ domain); His-tag (TEV-cleavable) (cleaved yes); made in house; host or cells: E. coli BL21 (DE3)
T2 sequence (O14640 247-341 limits assumed): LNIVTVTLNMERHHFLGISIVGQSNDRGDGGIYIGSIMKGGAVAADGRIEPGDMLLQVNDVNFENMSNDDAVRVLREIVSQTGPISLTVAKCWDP
Method: Studies on the interaction between compounds and Dvl PDZ domain were performed by surface plasmon resonance spectroscopy using the ProteOn™ XPR36 protein interaction array system (Bio‐Rad Laboratories, Inc., Hercules, CA). Purified Dvl PDZ domain was immobilized on a sensor chip, and then, various concentration of KY‐02327 in ProteOn PBS/Tween running buffer (PBS, pH 7.4 with 0.05% Tween 20) was flowed over the chip at a flow rate of 100 μl/min. The refractive index reflecting the mass concentration on the sensor surface is measured according to the manufacturer's instruction. Data were analyzed using ProteOn Manager Software 2.0 (Bio‐Rad Laboratories, Inc.).

Row | Structure (SMILES) | cytotoxic effect (cell number and viability) (primary calvaria cells) | β‐catenin protein level together with Runx2, nuclear β‐catenin (MC3T3E1 cells) | inhibition at 10 µM [1] [%] | inhibition at 10 µM (CYP3A4) [%] | inhibition at 10 µM (CYP1A2) [%] | binding to Dvl PDZ domain by surface plasmon resonance (Dvl PDZ domain)
1 | CCOC(=O)Cn1c(C(=O)OCC)cc2cc(OS(=O)(=O)c3ccc(C)cc3)ccc21 [KY‐02061] | without any cytotoxic effect | – | – | – | – | –
2 | CCOC(=O)c1cc2cc(O)ccc2n1CC(=O)NCCN1CCCCC1 [KY‐02327] | – | increased | 0 | 0 | 0 | binds with Dvl PDZ domain in a dose‐dependent manner
